Assays:
cells [1] = conditions: Homo sapiens, MCF7, 48 h
cells [2] = conditions: Homo sapiens, DU-145, 48 h
cells [3] = conditions: Homo sapiens, HeLa, 48 h
cells [4] = conditions: Homo sapiens, ECa-109, 48 h

| SMILES | IC50 (cells [1]) | IC50 (cells [2]) | IC50 (cells [3]) | IC50 (cells [4]) |
| --- | --- | --- | --- | --- |
| O=C(/C=C/c1ccc(O)c(O)c1)OCCc1ccc(F)cc1 | 29.9 µM | 12.8 µM | 35.8 µM | 51.9 µM |
| Cc1ccc(CCOC(=O)/C=C/c2ccc(O)c(O)c2)cc1 | 20.6 µM | 36.9 µM | 25.8 µM | 20.9 µM |
| COc1ccc(CCOC(=O)/C=C/c2ccc(O)c(O)c2)cc1 | 78 µM | 67.5 µM | 67.7 µM | 111 µM |
| O=C(/C=C/c1ccc(O)c(O)c1)OCCc1ccc(Br)cc1 | 28.2 µM | 35.4 µM | 56.8 µM | 40.3 µM |
| O=C(/C=C/c1ccc(O)c(O)c1)OCCc1ccccc1O | 21.8 µM | 24.4 µM | 29.4 µM | 40.2 µM |
| CCc1ccccc1CCOC(=O)/C=C/c1ccc(O)c(O)c1 | 8.7 µM | 4.7 µM | 4.2 µM | 7.3 µM |
| Cc1ccccc1CCOC(=O)/C=C/c1ccc(O)c(O)c1 | 2.5 µM | 6.6 µM | 2.3 µM | 8.2 µM |
| CC(C)Oc1ccccc1CCOC(=O)/C=C/c1ccc(O)c(O)c1 | 5.6 µM | 9.1 µM | 3.2 µM | 15.1 µM |
| Cc1cccc(CCOC(=O)/C=C/c2ccc(O)c(O)c2)c1 | 26.3 µM | 21.4 µM | 5.4 µM | 16.7 µM |
| O=C(/C=C/c1ccc(O)c(O)c1)OCCc1ccc(Cl)cc1 | 17.6 µM | 22.1 µM | 22.5 µM | 28.4 µM |
| COc1ccccc1CCOC(=O)/C=C/c1ccc(O)c(O)c1 | 7.1 µM | 2 µM | 1.6 µM | 5.9 µM |
| O=C(/C=C/c1ccc(O)c(O)c1)OCCc1ccccc1 [CAFFEIC ACID PHENETHYL ESTER] | 28.8 µM | 16 µM | 33 µM | 47.5 µM |
| CC(=O)O[C@H]1C(=O)[C@@]2(C)[C@H]([C@H](OC(=O)c3ccccc3)[C@]3(O)C[C@H](OC(=O)[C@H](O)[C@@H](NC(=O)c4ccccc4)c4ccccc4)C(C)=C1C3(C)C)[C@]1(OC(C)=O)CO[C@@H]1C[C@@H]2O [PACLITAXEL] | 0.63 µM | 0.011 µM | 0.036 µM | 0.94 µM |
| O=C(/C=C/c1ccc(O)c(O)c1)OCCc1ccc(O)cc1 [TYROSOL CAFFEATE] | 53.2 µM | 51.9 µM | 45.8 µM | 49.4 µM |

— ChEMBL document CHEMBL3872276, “Antiproliferative activity and SARs of caffeic acid esters with mono-substituted phenylethanols moiety” (Bioorg Med Chem Lett, 2017)
